The text below walks through data of patent US20260317384A1, “SMALL MOLECULE HUMANIN MIMETICS” (The Regents of the University Of California, priority 2023, published 2026).

One test addresses T1, gp130 receptor (Homo sapiens, UniProt P40189).
T1 construct: express more than 10 times more endogenous gp130; endogenous in cells; host or cells: U87-MG
T1 sequence (P40189 23-918): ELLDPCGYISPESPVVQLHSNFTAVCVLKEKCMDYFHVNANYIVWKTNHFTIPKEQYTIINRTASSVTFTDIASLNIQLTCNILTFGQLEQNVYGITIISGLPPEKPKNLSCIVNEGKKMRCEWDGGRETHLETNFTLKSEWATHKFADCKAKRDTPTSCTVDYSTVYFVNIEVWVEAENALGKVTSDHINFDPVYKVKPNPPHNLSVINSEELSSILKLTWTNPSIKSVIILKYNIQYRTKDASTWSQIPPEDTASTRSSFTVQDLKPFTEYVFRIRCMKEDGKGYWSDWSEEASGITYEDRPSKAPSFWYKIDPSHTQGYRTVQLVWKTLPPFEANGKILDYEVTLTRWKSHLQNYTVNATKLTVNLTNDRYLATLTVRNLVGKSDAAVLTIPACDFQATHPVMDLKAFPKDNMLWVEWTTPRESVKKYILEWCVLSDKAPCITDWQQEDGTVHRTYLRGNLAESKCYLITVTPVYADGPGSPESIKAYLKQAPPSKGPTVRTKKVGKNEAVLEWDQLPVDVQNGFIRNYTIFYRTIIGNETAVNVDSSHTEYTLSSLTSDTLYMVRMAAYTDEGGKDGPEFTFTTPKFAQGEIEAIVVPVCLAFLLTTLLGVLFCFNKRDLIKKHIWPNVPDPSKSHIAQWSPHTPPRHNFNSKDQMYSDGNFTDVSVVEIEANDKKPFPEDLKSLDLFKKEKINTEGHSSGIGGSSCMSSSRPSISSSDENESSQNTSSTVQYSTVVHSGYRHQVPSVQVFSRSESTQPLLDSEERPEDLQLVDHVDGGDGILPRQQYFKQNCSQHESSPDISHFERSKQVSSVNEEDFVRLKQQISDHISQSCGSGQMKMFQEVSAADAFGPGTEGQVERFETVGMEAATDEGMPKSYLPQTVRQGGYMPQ
The experiment in a line: p-gp130 (p-Tyr) ELISA, HTS validation and dose response in U87-MG cells. It counts as cell-based. The conditions noted are these: for p-gp130 (p-Tyr) dose response activity: dose response of validated hits, FIG. 4; for activation of gp130 receptor / increase of p-gp130: validation testing, truncated humanin peptides. The source says: (§1) An ELISA assay for the evaluation of the p-gp130 levels was developed. This was a commercial ELISA—DuoSet ELISA from R&D systems (cat #DYC3407-2) and detected the tyrosine phosphorylation of gp130. […] In addition, a commercially available p-AKT (1,2,3) AlphaLISA kit was used (PE cat #ALSU-PAKT-B-HV) for the HTS assay.
(§2) Small molecules that act as HN mimetics represent a new class of AD therapeutics. Through screening, validated hits that increase both p-gp-130 and p-Akt levels were identified. Human glioblastoma cells were used, U87-MG. Several hits that enhance p-gp 130 were identified as well as several compounds that can increase p-AKT (FIG. 3).
(§3) Into a 96 well plate was added 99 μL of warm DMEM/F12 without FBS, then 1 uL of compounds at 1 mM were loaded into the96 well plate. These generated the compounds at 2×. Into a 96 well plate was added IL6/IL6R solution to achieve 6.6×10−4 mg/mL and 3.3×10−4 mg/mL respectively, this is 2× concentration. For this, primary EL6 stock (0.1 mg/mL) was diluted150-fold and IL6R stock (0.1 mg/mL) 300-fold to treat cells with final concentration of 6.6×10−4 mg/mL and 3.3×10−4 mg/mL respectively. 10 ml of Sample Diluent Concentrate 2 (2X)(Part #895891/DYC002)+10 ml ddH2O+200 ul of 100 mM activated Na3VO4 (aliquots at −20C)+20 ul of 10 mg/ml aprotinin (stock at 4C)+20 ul of 10 mg/ml leupeptin (aliquots at −20C)+200 ul PIC-protected from light. Lysis buffer containing 1% NP-40 Alternative, 20 mM Tris (pH 8.0), 137 mM NaCl, 10% glycerol, 2 mM EDTA, 1 mM activated sodium orthovanadate, 10 μg/mL Aprotinin, 10 μg/mL Leupeptin. Placed on ice. Removed the media from the cell plate and add 50 μL of DMEM/F12 without FBS. Then, added 50 μL of the compounds or positive control IL6/IL6R at 2× into the cell plate using the multichannel (FIG. 7). Allowed the treatment to take place for 10 minutes in the incubator at 37° C. and 5% CO2. Cells were lysed with 130 μL of ice-cold lysis buffer. Placed cells on ice for 15 min, then in the −80° C. overnight. Next, we prepared the ELISA plate by warming coating buffer to RT. 12 strips were coated with capture antibody. For this: 121 μL of 180 μg/mL of capture antibody (R&D DYC3407-2) was added into 21.48 mL of coating buffer. 100 μL of this solution was added to each well, covered with a lead and incubated at RT overnight and then conducted the ELISA assay using the manufacture outlined protocol. The cell lysate from the HTS was prepared using the AlphaLISA buffer to measure levels of p-AKT after compound treatment.

The subject of a further test is p-gp130. The experiment in a line: p-gp130 AlphaLISA in U87-MG cells. It counts as cell-based, human. Particulars: 30 μM for 3 hours, FIG. 2D. On the procedure:
FIG. 2. Development of p-gp 130 and gp130 AlphaLISA assays (A) Evaluation of p-gp 130 and gp 130 levels in U87-MG and SH-SY5Y cells after treatment with compound 2 by immunoblotting. (B) Principle of AlphaLISA assay. (C) Data of developed gp-130 AlphaLISA assay. Analyte is recombinant gp130 (EC domain).
Eight different antibodies (more than 20 combinations) were tested in a course of p-gp130 and gp130 AlphaLISA development. The principle of the AlphaLISA assay is depicted in FIG. 2B. […] Lysate buffer composition and treatment conditions have been optimized.

Another test has as its system p-AKT. Description: p-AKT AlphaLISA in U87-MG cells. The conditions noted are these: FIG. 2D. It counts as cell-based, human. Also noted: dose or concentration left out as unconfirmed.
Excerpt: as §1, §2
Into a 96 well plate was added 99 μL of warm DMEM/F12 without FBS, then 1 uL of compounds at 1 mM were loaded into the96 well plate. These generated the compounds at 2×. Into a 96 well plate was added IL6/IL6R solution to achieve 6.6×10−4 mg/mL and 3.3×10−4 mg/mL respectively, this is 2× concentration. For this, primary EL6 stock (0.1 mg/mL) was diluted150-fold and IL6R stock (0.1 mg/mL) 300-fold to treat cells with final concentration of 6.6×10−4 mg/mL and 3.3×10−4 mg/mL respectively. 10 ml of Sample Diluent Concentrate 2 (2X)(Part #895891/DYC002)+10 ml ddH2O+200 ul of 100 mM activated Na3VO4 (aliquots at −20C)+20 ul of 10 mg/ml aprotinin (stock at 4C)+20 ul of 10 mg/ml leupeptin (aliquots at −20C)+200 ul PIC-protected from light. […]

The next test has as its system p-gp130 and p-Akt. Description: HN mimetic activity (p-gp130 and p-Akt). Type of test: cell-based, human.
Excerpt: as §1, §2
as §3, with “For this: 121 μL of 180 μg/mL of capture antibody (R&D DYC3407-2) was added into 21.48 mL of coating buffer. 100 μL of this solution was added to each well, covered with a lead and incubated at RT overnight and then conducted the ELISA assay using the manufacture outlined protocol. The cell lysate from the HTS was prepared using the AlphaLISA buffer to measure levels of p-AKT after compound treatment.” left out

Peptide text beside a SMILES is read from it. * marks the point of attachment. Cbz = O=C(OCc1ccccc1)*

As for `CCC(=O)Nc1ccc2nc(C)n(-c3cccc(Cl)c3)c(=O)c2c1` [DDL-813], the “p-gp130 (p-Tyr) dose response activity” value on gp130 receptor is “most potent showing submicromolar activity”.

For `C#CCSC[C@H](N)C(=O)O` [S-propargyl-cyctein (SPRC), S-propargyl-cyctein], the “p-gp130 AlphaLISA signal” value with p-gp130 was “significant increaste”. In addition, the “p-AKT AlphaLISA signal” value in the test with p-AKT is reported as “significant increaste”.

Regarding “H-TSEINLPVK-OH [DDL-814, NH2-Thr-Ser-Glu-Ile-Asn-Leu-Pro-Val-Lys-COOH]”, on gp130 receptor, the “p-gp130 (p-Tyr) dose response activity” value was “good activity” and the “activation of gp130 receptor / increase of p-gp130” value is “activate the gp130 receptor”. Further, the “activation of gp130 receptor / increase of p-gp130” value on gp130 receptor (listed as P3) is given as “increased p-gp-130”.

For Cbz-Thr-Ser-NH2 [DDL-841], the HN mimetic activity result in the test with p-gp130 and p-Akt is “increased HN mimetic activity”.

For “H-TGEINLPVK-OH [DDL-815, NH2-Thr-Gly-Glu-Ile-Asn-Leu-Pro-Val-Lys-COOH]”, in the test with p-gp130 and p-Akt, the HN mimetic activity entry is “weaker HN mimetic activity through lower p-gp130 and p-Akt”.

With `CC[C@H](C)[C@H](NC(=O)[C@H](CCC(=O)O)NC(=O)CNC(=O)[C@@H](N)[C@@H](C)O)C(=O)O` [DDL-842, NH2-Thr-Gly-Glu-Ile-COOH] (H-TGEI-OH), in the test on p-gp130 and p-Akt, the HN mimetic activity entry was “weak HN mimetic activity”.
